According to ChEMBL document CHEMBL3044798, “Nitrogen concentration and application timing affect imazamox efficacy in winter wheat” (Crop Prot, 2009):
Activity calls are given as the source filed them.

Assays:
Type in all cases: functional, organism-based
Aegilops cylindrica [1] = test: Herbicidal activity against Aegilops cylindrica treated as spring post-emergence application at winter wheat-growing season relative to urea ammonium nitrate
Aegilops cylindrica [2] = test: Herbicidal activity against Aegilops cylindrica treated as fall post-emergence application at winter wheat-growing season relative to urea ammonium nitrate
Secale cereale [3] = test: Herbicidal activity against feral Secale cereale (rye) treated as spring post-emergence application at winter wheat-growing season in presence of urea ammonium nitrate
Secale cereale [4] = test: Herbicidal activity against feral Secale cereale (rye) treated as fall post-emergence application at winter wheat-growing season in presence of urea ammonium nitrate

Measured: Activity

COCc1cnc(C2=NC(C)(C(C)C)C(=O)N2)c(C(=O)O)c1 (centres undefined)
active: all assays above
